Test results as given in patent publication US9775844B2, “Heterocyclic compounds and uses thereof” (Infinity Pharmaceuticals, Inc., priority 2014, dated 2017).

Columns and labels:
PI3K α = PI3K α (Homo sapiens (Human), UniProt P42336); test: PI3-Kinase Promega ADP-Glo Max assay; assay type: biochemical
PI3K β = PI3K β (Homo sapiens (Human), UniProt P42338); test: PI3-Kinase Promega ADP-Glo Max assay; assay type: biochemical
PI3K δ = PI3K δ (Homo sapiens (Human), UniProt O00329); test: PI3-Kinase Promega ADP-Glo Max assay; assay type: biochemical
PI3K γ = PI3K γ (Homo sapiens (Human), UniProt P48736); test: PI3-Kinase Promega ADP-Glo Max assay; assay type: biochemical
PI3K-δ in RAJI cells = PI3K-δ in RAJI cells (Homo sapiens (Human), UniProt O00329); test: RAJI p110 δ assay (PI3K-δ selective cellular assay, phospho-AKT); assay type: cell-based; conditions: phospho-AKT; read-out: RAJI p110 δ assay IC50
[1] = target: PI3K-γ in RAW264.7 macrophages (Mus musculus (Mouse), UniProt Q9JHG7); test: Raw264.7 p110 γ assay (PI3K-γ selective cellular assay, C5a-stimulated phospho-AKT); assay type: cell-based; conditions: for IC50: phospho-AKT, read-out: Raw264.7 p110 γ assay IC50
PI3K-γ in RAW264.7 macrophages, sequence (Q9JHG7 whole entry): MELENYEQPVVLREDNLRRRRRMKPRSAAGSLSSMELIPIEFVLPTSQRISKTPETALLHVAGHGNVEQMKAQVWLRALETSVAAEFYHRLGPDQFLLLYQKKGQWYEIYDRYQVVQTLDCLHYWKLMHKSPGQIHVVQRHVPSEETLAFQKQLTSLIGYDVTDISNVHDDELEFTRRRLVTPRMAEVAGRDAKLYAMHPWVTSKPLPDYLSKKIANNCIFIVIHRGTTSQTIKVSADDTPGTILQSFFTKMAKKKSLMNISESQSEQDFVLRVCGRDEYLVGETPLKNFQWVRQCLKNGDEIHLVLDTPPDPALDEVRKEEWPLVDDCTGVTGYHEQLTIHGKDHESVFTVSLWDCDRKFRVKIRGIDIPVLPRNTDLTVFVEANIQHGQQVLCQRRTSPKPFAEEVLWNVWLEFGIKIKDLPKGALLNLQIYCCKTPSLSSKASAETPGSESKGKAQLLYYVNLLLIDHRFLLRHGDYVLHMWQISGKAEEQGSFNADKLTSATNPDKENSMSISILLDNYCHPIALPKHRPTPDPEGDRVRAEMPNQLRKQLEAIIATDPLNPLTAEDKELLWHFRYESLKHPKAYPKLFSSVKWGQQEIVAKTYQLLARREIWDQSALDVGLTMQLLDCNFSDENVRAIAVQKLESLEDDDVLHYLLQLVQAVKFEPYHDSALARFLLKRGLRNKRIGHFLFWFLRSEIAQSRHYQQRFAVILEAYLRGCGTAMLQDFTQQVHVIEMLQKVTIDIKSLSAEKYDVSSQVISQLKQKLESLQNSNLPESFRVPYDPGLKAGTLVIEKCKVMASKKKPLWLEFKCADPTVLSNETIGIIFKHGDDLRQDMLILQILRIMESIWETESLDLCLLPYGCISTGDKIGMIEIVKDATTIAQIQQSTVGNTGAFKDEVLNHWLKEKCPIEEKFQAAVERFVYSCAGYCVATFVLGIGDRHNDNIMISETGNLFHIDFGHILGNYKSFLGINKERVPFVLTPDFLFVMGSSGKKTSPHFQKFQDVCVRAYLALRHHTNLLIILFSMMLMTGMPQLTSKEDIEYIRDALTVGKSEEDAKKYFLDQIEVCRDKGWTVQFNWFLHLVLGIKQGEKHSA
Source text: Briefly, serum-starved RAW264.7 cells are stimulated with a known GPCR agonist C5a. […] Cells can be treated with test compounds prior to, simultaneously with, or subsequent to the stimulation by C5a. RAW 264.7 cells respond to the complement component fragment C5a through activation of the C5a receptor, and the C5a receptor activates macrophages and induces cell migration.

PI3K β, sequence (P42338 whole entry): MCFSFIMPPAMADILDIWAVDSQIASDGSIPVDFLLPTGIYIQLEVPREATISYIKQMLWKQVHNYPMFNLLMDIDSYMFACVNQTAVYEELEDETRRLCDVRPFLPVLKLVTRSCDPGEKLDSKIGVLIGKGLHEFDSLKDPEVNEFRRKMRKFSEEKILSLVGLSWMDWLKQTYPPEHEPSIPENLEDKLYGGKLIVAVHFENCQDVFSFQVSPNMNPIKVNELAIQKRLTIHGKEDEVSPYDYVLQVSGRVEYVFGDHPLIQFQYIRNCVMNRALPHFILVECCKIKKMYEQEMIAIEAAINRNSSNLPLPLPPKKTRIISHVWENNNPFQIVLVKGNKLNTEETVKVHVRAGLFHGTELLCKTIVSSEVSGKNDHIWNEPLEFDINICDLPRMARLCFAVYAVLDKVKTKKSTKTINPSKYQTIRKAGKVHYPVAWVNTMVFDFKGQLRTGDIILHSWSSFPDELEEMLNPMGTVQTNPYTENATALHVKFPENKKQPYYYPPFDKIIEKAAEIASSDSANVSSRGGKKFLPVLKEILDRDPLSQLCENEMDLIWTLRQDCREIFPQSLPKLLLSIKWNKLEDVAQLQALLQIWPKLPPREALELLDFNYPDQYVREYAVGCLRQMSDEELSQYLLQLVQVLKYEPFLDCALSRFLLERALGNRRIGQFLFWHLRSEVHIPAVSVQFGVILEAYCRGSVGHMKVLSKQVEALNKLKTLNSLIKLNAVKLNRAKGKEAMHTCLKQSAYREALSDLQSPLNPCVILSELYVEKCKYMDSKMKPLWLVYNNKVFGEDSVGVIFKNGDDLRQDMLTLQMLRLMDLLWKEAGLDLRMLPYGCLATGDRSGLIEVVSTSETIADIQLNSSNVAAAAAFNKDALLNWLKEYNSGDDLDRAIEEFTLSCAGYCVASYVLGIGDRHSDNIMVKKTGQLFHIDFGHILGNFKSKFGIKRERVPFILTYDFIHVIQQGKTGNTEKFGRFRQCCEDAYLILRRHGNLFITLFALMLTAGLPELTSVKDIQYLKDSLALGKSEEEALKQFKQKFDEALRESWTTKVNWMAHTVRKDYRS
PI3K β, sequence (P27986 whole entry partner): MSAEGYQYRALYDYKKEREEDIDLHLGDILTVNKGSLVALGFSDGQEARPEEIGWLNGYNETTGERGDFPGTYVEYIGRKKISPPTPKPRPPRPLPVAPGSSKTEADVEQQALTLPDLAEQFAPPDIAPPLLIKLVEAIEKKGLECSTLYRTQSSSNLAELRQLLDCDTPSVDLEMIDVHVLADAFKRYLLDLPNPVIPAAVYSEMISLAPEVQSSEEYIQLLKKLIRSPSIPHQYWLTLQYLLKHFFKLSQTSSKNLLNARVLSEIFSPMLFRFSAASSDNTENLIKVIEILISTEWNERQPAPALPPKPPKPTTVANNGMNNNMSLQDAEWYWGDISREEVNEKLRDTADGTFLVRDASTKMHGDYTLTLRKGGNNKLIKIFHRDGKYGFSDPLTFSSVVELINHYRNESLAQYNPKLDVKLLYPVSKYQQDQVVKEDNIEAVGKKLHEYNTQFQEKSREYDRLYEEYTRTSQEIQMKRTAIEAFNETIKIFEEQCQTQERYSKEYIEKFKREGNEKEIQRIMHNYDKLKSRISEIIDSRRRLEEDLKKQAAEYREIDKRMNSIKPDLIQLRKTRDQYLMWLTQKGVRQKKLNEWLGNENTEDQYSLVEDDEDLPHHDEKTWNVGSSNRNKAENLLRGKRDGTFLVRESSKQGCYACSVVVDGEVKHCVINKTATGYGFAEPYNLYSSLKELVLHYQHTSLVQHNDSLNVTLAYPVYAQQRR
PI3K-δ in RAJI cells, sequence (O00329 whole entry): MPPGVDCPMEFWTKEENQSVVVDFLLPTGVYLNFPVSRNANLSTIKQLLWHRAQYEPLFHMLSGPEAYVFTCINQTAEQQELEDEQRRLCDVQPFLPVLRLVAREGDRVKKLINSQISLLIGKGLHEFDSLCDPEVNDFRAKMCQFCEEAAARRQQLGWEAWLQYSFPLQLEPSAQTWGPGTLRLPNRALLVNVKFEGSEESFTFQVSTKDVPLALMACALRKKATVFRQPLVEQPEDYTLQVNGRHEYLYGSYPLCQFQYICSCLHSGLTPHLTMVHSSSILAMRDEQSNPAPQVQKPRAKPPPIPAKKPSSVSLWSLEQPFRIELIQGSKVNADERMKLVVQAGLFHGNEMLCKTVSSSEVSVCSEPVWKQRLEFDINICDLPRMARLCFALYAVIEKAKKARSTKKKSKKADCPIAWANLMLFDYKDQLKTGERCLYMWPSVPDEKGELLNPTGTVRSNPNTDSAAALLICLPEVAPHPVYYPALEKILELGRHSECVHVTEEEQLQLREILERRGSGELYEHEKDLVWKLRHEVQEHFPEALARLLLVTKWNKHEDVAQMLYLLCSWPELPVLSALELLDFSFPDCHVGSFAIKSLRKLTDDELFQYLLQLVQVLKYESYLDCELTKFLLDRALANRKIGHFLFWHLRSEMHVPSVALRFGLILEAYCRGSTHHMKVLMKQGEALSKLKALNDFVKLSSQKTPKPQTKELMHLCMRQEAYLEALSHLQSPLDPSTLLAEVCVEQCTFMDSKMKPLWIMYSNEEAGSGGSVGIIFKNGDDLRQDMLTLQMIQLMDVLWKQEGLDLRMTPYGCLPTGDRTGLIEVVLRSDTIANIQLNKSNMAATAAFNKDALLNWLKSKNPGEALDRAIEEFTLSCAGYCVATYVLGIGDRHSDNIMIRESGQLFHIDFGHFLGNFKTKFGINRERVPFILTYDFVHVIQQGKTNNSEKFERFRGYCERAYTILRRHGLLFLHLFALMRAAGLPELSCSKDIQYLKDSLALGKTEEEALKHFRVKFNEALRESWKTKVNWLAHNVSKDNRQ
PI3K-δ in RAJI cells, sequence (P27986 whole entry partner): as the sequence (P27986 whole entry partner) above
PI3K δ, sequence (O00329 whole entry): as the sequence (O00329 whole entry) above
PI3K δ, sequence (P27986 whole entry partner): as the sequence (P27986 whole entry partner) above

SMILES | IC50 (PI3K α) [µM] | IC50 (PI3K β) [µM] | IC50 (PI3K δ) [µM] | IC50 (PI3K γ) [µM] | PI3K δ/PI3K γ IC50 (selectivity) (PI3K γ) | IC50 (PI3K-δ in RAJI cells) [µM] | RAJIδ/Raw264.7 γ IC50 (selectivity) [1] | IC50 [1] [µM]
Cc1nc(C)c(C#Cc2cccc3cc([C@H](C)NC(=O)c4c(N)nn5cccnc45)n(-c4ccccc4)c(=O)c23)s1 [Compound 79] | 5 to 10 | 5 to 10 | 5 to 10 | 0.5 to 1 | X (X = 10 to <50) | 1 to 10 | Y (Y = 50 to <850) | 0.001 to 0.05
C[C@H](NC(=O)c1c(N)nn2cccnc12)c1cc2cccc(C#Cc3cn[nH]c3)c2c(=O)n1-c1ccccc1 [Compound 80] | 1 to 5 | 1 to 5 | 5 to 10 | 0.001 to 0.1 | Y (key: V = 0.1 to 1; W = >1 to <10; X = 10 to <50; Y = 50 to <850) | 0.1 to 0.5 | Y (key: V = 0.1 to 1; W = >1 to <10; X = 10 to <50; Y = 50 to <850) | 0.001 to 0.05
CC(=O)N1CCC(C#Cc2cccc3cc([C@H](C)NC(=O)c4c(N)nn5cccnc45)n(-c4ccccc4)c(=O)c23)CC1 [Compound 82] | 5 to 10 | 5 to 10 | 5 to 10 | 0.1 to 0.5 | X (key: V = 0.1 to 1; W = >1 to <10; X = 10 to <50; Y = 50 to <850) | 0.5 to 1 | X (key: V = 0.1 to 1; W = >1 to <10; X = 10 to <50; Y = 50 to <850) | 0.001 to 0.05
C[C@H](NC(=O)c1c(N)nn2cccnc12)c1cc2cccc(C#CC3CCN(S(C)(=O)=O)CC3)c2c(=O)n1-c1ccccc1 [Compound 83] | 5 to 10 | 5 to 10 | 5 to 10 | 0.5 to 1 | X (key: V = 0.1 to 1; W = >1 to <10; X = 10 to <50; Y = 50 to <850) | 0.5 to 1 | X (key: V = 0.1 to 1; W = >1 to <10; X = 10 to <50; Y = 50 to <850) | 0.001 to 0.05
C[C@H](NC(=O)c1c(N)nn2cccnc12)c1cc2cccc(C#CC3CCOC3)c2c(=O)n1-c1ccccc1 (stereo partly shown) [Compound 84] | 5 to 10 | 5 to 10 | 5 to 10 | 0.001 to 0.1 | Y (Y = 50 to <850) | 0.1 to 0.5 | X (X = 10 to <50) | 0.001 to 0.05
C[C@H](NC(=O)c1c(N)nn2cccnc12)c1cc2ccc3ccccc3c2c(=O)n1-c1ccccc1 [Compound 89] | 5 to 10 | 5 to 10 | 5 to 10 | 0.5 to 1 | X (X = 10 to <50) | 1 to 10 | Y (Y = 50 to <850) | 0.001 to 0.05
C[C@H](NC(=O)c1c(N)nn2cccnc12)c1cc2cccc(NC(=O)c3cnn(C)c3)c2c(=O)n1-c1ccccc1 [Compound 90] | 5 to 10 | 5 to 10 | 5 to 10 | 1 to 5 | W (key: V = 0.1 to 1; W = >1 to <10; X = 10 to <50; Y = 50 to <850) | 1 to 10 | X (key: V = 0.1 to 1; W = >1 to <10; X = 10 to <50; Y = 50 to <850) | 0.1 to 10
C[C@H](NC(=O)c1c(N)nn2cccnc12)c1cc2cccc(CC(=O)c3cnn(C)c3)c2c(=O)n1-c1ccccc1 [Compound 91] | 5 to 10 | 5 to 10 | 5 to 10 | 0.5 to 1 | W (W = >1 to <10) | 0.1 to 0.5 | W (W = >1 to <10) | 0.1 to 10
